Laboratory results: patent US9187435B2, “Bridged Spiro[2.4]heptane ester derivatives” (Actelion Pharmaceuticals Ltd., priority 2010, dated 2015)
Where a name gives a salt, the structure may show the parent alone.

These compounds were tested against T1, human ALX receptor (Homo sapiens, UniProt P25090) (assay: Intracellular calcium measurements (FLIPR) in HEK293-hALXR-Gα16 cells, agonistic activity). Conditions: values normalized to WKYMVm 10 nM.
T1 construct: expressed in transfected cells; host or cells: HEK293 (HEK293-hALXR-Gα16)
T1 sequence (P25090 1-351): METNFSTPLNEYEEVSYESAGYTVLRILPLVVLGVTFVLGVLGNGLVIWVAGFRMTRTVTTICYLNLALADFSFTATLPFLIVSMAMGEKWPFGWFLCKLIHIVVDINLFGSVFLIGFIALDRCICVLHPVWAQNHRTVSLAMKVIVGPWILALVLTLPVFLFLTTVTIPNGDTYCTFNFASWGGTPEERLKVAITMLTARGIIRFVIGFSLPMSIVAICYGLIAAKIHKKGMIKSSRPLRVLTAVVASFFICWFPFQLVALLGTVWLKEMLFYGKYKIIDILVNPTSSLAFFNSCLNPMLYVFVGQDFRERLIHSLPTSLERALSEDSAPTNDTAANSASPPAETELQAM
Format: cell-based
Procedure, shortened: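 HEK293 cells co-expressing human ALX receptor and Gα16, loaded with 1 μM Fluo-4 AM (60 min, 37 °C), then exposed to serially diluted compound. Peak fluorescence above baseline (ex 488/em 540 nm) was recorded after compound addition. Values were normalized to 10 nM WKYMVm as the high control, after subtracting the buffer-addition baseline.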

SMILES | EC50
O=C(OC[C@H]1CCNC[C@H]1F)[C@H]1[C@H](C(=O)Nc2ccc(Br)nc2)[C@@H]2CC[C@H]1C21CC1 (relative stereo) [Example 64, (1S,2R,3R,4R)-[(cis-3-Fluoro-piperidin-4-yl)methyl 2-((6-bromopyridin-3-yl)carbamoyl)spiro[bicyclo[2.2.1]heptane-7,1′-cyclopropane]-3-carboxylate]] | 106 nM
O=C(OCC1(F)CCNCC1)[C@H]1[C@H](C(=O)Nc2ccc(Br)nc2)[C@@H]2CC[C@H]1C21CC1 [Example 55, (1S,2R,3R,4R)-[(4-Fluoro-piperidin-4-yl)methyl 2-((6-bromopyridin-3-yl)carbamoyl)spiro[bicyclo[2.2.1]heptane-7,1′-cyclopropane]-3-carboxylate]] | 18.5 nM
O=C(OCCC1CCNCC1(F)F)[C@H]1[C@H](C(=O)Nc2ccc(Br)nc2)[C@@H]2CC[C@H]1C21CC1 (stereo partly drawn) [Example 73, (1S,2R,3R,4R)-[2-(3,3-Difluoro-piperidin-4-yl)ethyl 2-((6-bromopyridin-3-yl)carbamoyl)spiro[bicyclo[2.2.1]heptane-7,1′-cyclopropane]-3-carboxylate]] | 270 nM
COCCOC(=O)[C@H]1[C@H](C(=O)Nc2ccc(Br)nc2)[C@@H]2CC[C@H]1C21CC1 [Example 7, (1S,2R,3R,4R)-[2-Methoxyethyl 2-((6-bromopyridin-3-yl)carbamoyl)spiro[bicyclo[2.2.1]heptane-7,1′-cyclopropane]-3-carboxylate]] | 303 nM
Cc1cc(CNC(=O)[C@H]2[C@H](C(=O)OCCC3CCNCC3(F)F)[C@H]3CC[C@@H]2C32CC2)on1 (stereo partly drawn) [Example 66, (1S,2R,3R,4R)-[(3,3-Difluoro-piperidin-4-yl)ethyl 2-(((3-methylisoxazol-5-yl)methyl)carbamoyl)spiro[bicyclo[2.2.1]heptane-7,1′-cyclopropane]-3-carboxylate]] | 113 nM
O=C(OCC[C@H]1CCNC[C@H]1F)[C@H]1[C@H](C(=O)Nc2ccc(Br)nc2)[C@@H]2CC[C@H]1C21CC1 (relative stereo) [Example 38, (1S,2R,3R,4R)-[2-(cis-3-Fluoro-piperidin-4-yl)ethyl 2-((6-bromopyridin-3-yl)carbamoyl)spiro[bicyclo[2.2.1]heptane-7,1′-cyclopropane]-3-carboxylate]] | 1.8 nM
O=C(OCCN1CCCC1=O)[C@H]1[C@H](C(=O)Nc2ccc(Br)nc2)[C@@H]2CC[C@H]1C21CC1 [Example 23, (1S,2R,3R,4R)-[2-(2-Oxopyrrolidin-1-yl)ethyl 2-((6-bromopyridin-3-yl)carbamoyl)spiro[bicyclo[2.2.1]heptane-7,1′-cyclopropane]-3-carboxylate]] | 281 nM
O=C(OCCC1CCNCC1)[C@H]1[C@H](C(=O)NCc2ccc(Br)cc2F)[C@@H]2CC[C@H]1C21CC1 [Example 72, (1S,2R,3R,4R)-[2-(Piperidin-4-yl)ethyl 2-((4-bromo-2-fluorobenzyl)carbamoyl)spiro[bicyclo[2.2.1]heptane-7,1′-cyclopropane]-3-carboxylate]hydrochloride] | 262 nM
Cc1cc(CNC(=O)[C@H]2[C@H](C(=O)OCCC(N)=O)[C@H]3CC[C@@H]2C32CC2)on1 [Example 65, (1S,2R,3R,4R)-[(3-Amino-3-oxopropyl) 2-(((3-methylisoxazol-5-yl)methyl)carbamoyl)spiro[bicyclo[2.2.1]heptane-7,1′-cyclopropane]-3-carboxylate]] | 107 nM
NCc1cccc(COC(=O)[C@H]2[C@H](C(=O)Nc3ccc(Br)nc3)[C@@H]3CC[C@H]2C32CC2)c1 [Example 45, (1S,2R,3R,4R)-[3-(Aminomethyl)benzyl 2-((6-bromopyridin-3-yl)carbamoyl)spiro[bicyclo[2.2.1]heptane-7,1′-cyclopropane]-3-carboxylate]] | 9.3 nM

Further lines, results first:

EC50 | SMILES
10.8 nM | O=C(OCC1CCNCC1)[C@H]1[C@H](C(=O)Nc2ccc(Br)cc2)[C@@H]2CC[C@H]1C21CC1 [Example 50, (1S,2R,3R,4R)-[(Piperidin-4-yl)methyl 2-((4-bromophenyl)carbamoyl)spiro[bicyclo[2.2.1]heptane-7,1′-cyclopropane]-3-carboxylate]hydrochloride]
808 nM | CCCOC(=O)[C@H]1[C@H](C(=O)NCc2cc(C)on2)[C@@H]2CC[C@H]1C21CC1 [Example 30, (1S,2R,3R,4R)-[Propyl 2-(((5-methylisoxazol-3-yl)methyl)carbamoyl)spiro[bicyclo[2.2.1]heptane-7,1′-cyclopropane]-3-carboxylate]]
14.6 nM | O=C(OCCCCN1CCCC1)[C@H]1[C@H](C(=O)Nc2ccc(Br)nc2)[C@@H]2CC[C@H]1C21CC1 [Example 54, (1S,2R,3R,4R)-[4-(Pyrrolidin-1-yl)butyl 2-((6-bromopyridin-3-yl)carbamoyl)spiro[bicyclo[2.2.1]heptane-7,1′-cyclopropane]-3-carboxylate]]
9.7 nM | Cc1cc(CNC(=O)[C@H]2[C@H](C(=O)OCCC3CCNCC3)[C@H]3CC[C@@H]2C32CC2)no1 [Example 47, (1S,2R,3R,4R)-[2-(Piperidin-4-yl)ethyl 2-(((5-methylisoxazol-3-yl)methyl)carbamoyl)spiro[bicyclo[2.2.1]heptane-7,1′-cyclopropane]-3-carboxylate]]
790 nM | Cc1cc(CNC(=O)[C@H]2[C@H](C(=O)OC3CCCC3)[C@H]3CC[C@@H]2C32CC2)no1 [Example 29, (1S,2R,3R,4R)-[Cyclopentyl 2-(((5-methylisoxazol-3-yl)methyl)carbamoyl)spiro[bicyclo[2.2.1]heptane-7,1′-cyclopropane]-3-carboxylate]]
